Measurements published in PubChem BioAssay AID1963869 (Molecular Pharmacology Branch, DTP, NCI, 2024).

Tested on: KRAS patient-derived spheroids with HUVEC/MSC, viability
Experiment: Anticancer human tumor 323965-272-R-J2-PDC patient-derived pancreatic carcinoma cell line growth inhibition [KRAS2]
Conditions: for IC50: curve of first compound; for viability, T/C: stronger effect = lower value
Summary of the method: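 KRAS-mutant tumor cells were grown as spheroids with HUVEC endothelial cells and human MSCs as stroma. Targeted agents were tested alone and with KRAS pathway inhibitors. Doses started at or near clinical Cmax, or 10 microM, descending half-log.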
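Note: spheroids exposed to agents for 7 days.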
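Throughout, for viability, T/C: 100% = DMSO vehicle control viability.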

`CC1OCC2(CCN(c3cnc(Sc4ccnc(N)c4Cl)c(N)n3)CC2)C1N` (stereo not given) + COc1cc2nc(C)nc(NC(C)c3cc(N)cc(C(F)(F)F)c3)c2cc1OC1CCOC1 was tested, and the IC50 (second compound 0.1 µM) was 118 nM, the IC50 (second compound 0.316 µM) was 54.9 nM and the IC50 (second compound 1 µM) was less than 31.6 nM. For the same molecule, the IC50 (second compound 3.16 µM) was less than 31.6 nM, the IC50 (second compound 10 µM) was less than 31.6 nM and the viability, T/C (second compound 0.1 µM, first compound 0.0316 µM) was 66.7%. It also gave a viability, T/C (second compound 0.1 µM, first compound 0.1 µM) of 49.4%, a viability, T/C (second compound 0.1 µM, first compound 0.316 µM) of 41.4% and a viability, T/C (second compound 0.1 µM, first compound 1 µM) of 33%. For the same molecule, the viability, T/C (second compound 0.1 µM, first compound 3.16 µM) was 24.1%, the viability, T/C (second compound 0.1 µM, first compound 10 µM) was 21.1% and the viability, T/C (second compound 0.316 µM, first compound 0.0316 µM) was 52.5%. For the same molecule, the viability, T/C (second compound 0.316 µM, first compound 0.1 µM) was 47.9%, the viability, T/C (second compound 0.316 µM, first compound 0.316 µM) was 40.2% and the viability, T/C (second compound 0.316 µM, first compound 1 µM) was 27.5%. For the same molecule, the viability, T/C (second compound 0.316 µM, first compound 3.16 µM) was 26.1%, the viability, T/C (second compound 0.316 µM, first compound 10 µM) was 19.1% and the viability, T/C (second compound 1 µM, first compound 0.0316 µM) was 43.5%. It also gave a viability, T/C (second compound 1 µM, first compound 0.1 µM) of 34.6%, a viability, T/C (second compound 1 µM, first compound 0.316 µM) of 31.1% and a viability, T/C (second compound 1 µM, first compound 1 µM) of 24.7%. It also gave a viability, T/C (second compound 1 µM, first compound 3.16 µM) of 19.4%, a viability, T/C (second compound 1 µM, first compound 10 µM) of 20.6% and a viability, T/C (second compound 3.16 µM, first compound 0.0316 µM) of 46.6%. It also gave a viability, T/C (second compound 3.16 µM, first compound 0.1 µM) of 33.7%, a viability, T/C (second compound 3.16 µM, first compound 0.316 µM) of 29.6% and a viability, T/C (second compound 3.16 µM, first compound 1 µM) of 17.7%. The viability, T/C (second compound 3.16 µM, first compound 3.16 µM) was 13.8%, the viability, T/C (second compound 3.16 µM, first compound 10 µM) was 16.9% and the viability, T/C (second compound 10 µM, first compound 0.0316 µM) was 49.2%. For the same molecule, the viability, T/C (second compound 10 µM, first compound 0.1 µM) was 35.6%, the viability, T/C (second compound 10 µM, first compound 0.316 µM) was 17.5% and the viability, T/C (second compound 10 µM, first compound 1 µM) was 12.9%. For the same molecule, the viability, T/C (second compound 10 µM, first compound 3.16 µM) was 11.5% and the viability, T/C (second compound 10 µM, first compound 10 µM) was 11.4%.
